Structures can show the parent of a compound that is named as a salt. Where two headings read alike, the source gives them in different places.
Key:
[1] = male, Crl:CD (SD), rat, in vivo, po, 1 mg/kg
[2] = rat, in vivo

O=C(CN1CCCC1)Nc1ccc(C(c2ccc(NC(=O)CN3CCCC3)cc2)C2CCCCC2)cc1 [maleic acid salt, N,N′-[(cyclohexylmethylene)di-4,1-phenylene]bis[2-(1-pyrrolidinyl)acetamide] maleate]
tmax Time required to reach maximum radioactivity concentration [1]: 4.0 h
Concentrations of radioactivity in the cerebrum and cerebellum compared with blood [2]: higher than those in the blood
Radioactivity in tissues relative to plasma [2]: 100 fold
Blood concentration of radioactivity/plasma concentration of radioactivity (RB) ([2]; iv, 1 mg/kg): 10.18
Distribution to blood cells (T) ([2]; iv, 1 mg/kg): 93.7%
Radioactivity concentration Blood (Cb) ([2]; iv, 1 mg/kg): 39.7 ng eq./mL
Radioactivity concentration Plasma (Cp) ([2]; iv, 1 mg/kg): 3.9 ng eq./mL
Blood concentration of radioactivity/plasma concentration of radioactivity (RB) ([2]; iv, 10 mg/kg): 19.52
Distribution to blood cells (T) ([2]; iv, 10 mg/kg): 96.5%
Radioactivity concentration Blood (Cb) ([2]; iv, 10 mg/kg): 407.9 ng eq./mL
Radioactivity concentration Plasma (Cp) ([2]; iv, 10 mg/kg): 20.9 ng eq./mL
Blood concentration of radioactivity/plasma concentration of radioactivity (RB) ([2]; po, 1 mg/kg): 4.55
Distribution to blood cells (T) ([2]; po, 1 mg/kg): 86.0%
Radioactivity concentration Blood (Cb) ([2]; po, 1 mg/kg): 10.0 ng eq./mL
Radioactivity concentration Plasma (Cp) ([2]; po, 1 mg/kg): 2.2 ng eq./mL
